Measurements: patent US10508120B2, “TYK2 inhibitors and uses thereof” (Nimbus Lakshmi, Inc., priority 2017, dated 2019)

What was measured:
[1] = target: human TYK2 (JH2domain-pseudokinase) (Homo sapiens (Human), UniProt P29597); experiment: TYK2 JH2 Domain Binding Assay (KINOMEscan)
Outline: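 The construct was human TYK2 G556–D888 fused to the NFkB DNA-binding domain and expressed in HEK293 cells; unpurified extract was incubated with compound and liganded beads for 1 hour at room temperature.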

JAK2 kinase domain (JH1) = JAK2 kinase domain (JH1) (Homo sapiens (Human), UniProt O60674); experiment: JAK2 Radioactive Kinase Assay; format: biochemical; conditions: 10 μM compound, 10 μM ATP; for inhibition at 10 µM: read-out: JAK2 JH1% Inhibition @ 10 μM
Outline: (§1)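 Compounds were tested at a single concentration of 10 μM in a radiometric kinase format against each isolated kinase domain. Activity is reported as percent inhibition at that concentration.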

Tyk2 kinase domain (DH1) = Tyk2 kinase domain (DH1) (Homo sapiens (Human), UniProt P29597); experiment: Tyk2 Radioactive Kinase Assay; format: biochemical; conditions: 10 μM compound, 10 μM ATP; for inhibition at 10 µM: read-out: Tyk2 JH1% Inhibition @ 10 μM
Outline: as §1

Chain of JAK2 kinase domain (JH1) (O60674 849-1124): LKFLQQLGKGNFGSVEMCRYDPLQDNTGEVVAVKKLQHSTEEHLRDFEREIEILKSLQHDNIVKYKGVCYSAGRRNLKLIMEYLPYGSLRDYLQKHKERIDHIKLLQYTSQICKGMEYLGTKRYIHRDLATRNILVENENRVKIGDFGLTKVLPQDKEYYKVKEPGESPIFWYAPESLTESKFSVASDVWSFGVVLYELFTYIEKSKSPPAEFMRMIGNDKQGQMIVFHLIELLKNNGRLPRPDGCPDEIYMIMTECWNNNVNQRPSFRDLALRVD
Chain of Tyk2 kinase domain (DH1) (P29597 897-1176): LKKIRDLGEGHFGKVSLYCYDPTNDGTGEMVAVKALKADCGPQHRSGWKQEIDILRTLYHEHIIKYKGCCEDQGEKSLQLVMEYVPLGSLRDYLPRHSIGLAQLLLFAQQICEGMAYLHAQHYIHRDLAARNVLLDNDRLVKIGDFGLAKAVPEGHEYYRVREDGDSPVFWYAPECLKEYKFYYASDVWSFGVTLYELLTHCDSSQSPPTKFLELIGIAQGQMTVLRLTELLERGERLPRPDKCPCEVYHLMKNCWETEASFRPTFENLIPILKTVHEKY
Chain of human TYK2 (JH2domain-pseudokinase) (P29597 556-888): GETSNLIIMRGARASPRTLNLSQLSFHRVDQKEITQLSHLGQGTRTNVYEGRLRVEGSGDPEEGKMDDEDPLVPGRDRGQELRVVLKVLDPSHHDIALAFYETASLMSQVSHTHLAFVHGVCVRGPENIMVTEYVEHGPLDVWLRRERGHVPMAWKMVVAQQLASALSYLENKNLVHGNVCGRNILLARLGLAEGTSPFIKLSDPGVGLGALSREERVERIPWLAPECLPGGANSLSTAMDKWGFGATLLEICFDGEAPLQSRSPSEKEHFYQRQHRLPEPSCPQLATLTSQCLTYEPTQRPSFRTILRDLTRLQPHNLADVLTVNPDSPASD

Row | Structure (SMILES) | Kd [1] | inhibition at 10 µM (JAK2 kinase domain (JH1)) | inhibition at 10 µM (Tyk2 kinase domain (DH1)) | JAK2 JH1% Inhibition @ 10 μM (JAK2 kinase domain (JH1)) | Tyk2 JH1% Inhibition @ 10 μM (Tyk2 kinase domain (DH1))
1 | CNc1cc(Nc2cccn(-c3oc(C)nc3C)c2=O)nc2c(C(=O)N[C@@H]3C[C@@H]3F)cnn12 [I-938] | 200 to 1000 pM | < 50% | < 50% | – | –
2 | CNc1cc(Nc2cccn(-c3ccccc3F)c2=O)nc2c(C(=O)NCC(C)CO)cnn12 (stereo not drawn) [I-941] | < 200 pM | < 50% | < 50% | – | –
3 | CNc1cc(Nc2cccn(C3CCCCC3)c2=O)nc2c(C(=O)N[C@H]3CC[C@H]3O)cnn12 [I-942] | < 200 pM | < 50% | < 50% | – | –
4 | CNc1cc(Nc2cccn(C3CCCCC3)c2=O)nc2c(C(=O)NCC(C)CO)cnn12 (stereo not drawn) [I-944] | < 200 pM | < 50% | < 50% | – | –
5 | CNc1cc(Nc2cccn(-c3cccc(F)c3)c2=O)nc2c(C(=O)NCC(C)CO)cnn12 (stereo not drawn) [I-947] | < 200 pM | < 50% | < 50% | – | –
6 | CNc1cc(Nc2cccc(-c3cn(C)nc3F)n2)nc2c(C(=O)N[C@H]3CC[C@H]3O)cnn12 [I-948] | < 200 pM | < 50% | < 50% | – | –
7 | CNc1cc(Nc2cccc(-c3cn(C)nc3F)n2)nc2c(C(=O)N[C@@H]3CC[C@@H]3O)cnn12 [I-949] | 1000 to 10000 pM | < 50% | < 50% | – | –
8 | CNc1cc(Nc2cccn([C@H]3CCC[C@@H](OC)C3)c2=O)nc2c(C(=O)NCC(C)(C)CO)cnn12 [I-950] | 200 to 1000 pM | < 50% | < 50% | – | –
9 | CNc1cc(-c2cn(CCN3CCN(C)CC3)c3ncccc23)nc2c(C(=O)N[C@@H]3CC[C@H]3OC)cnn12 [I-953] | 200 to 1000 pM | < 50% | < 50% | – | –
10 | CNc1cc(Nc2cccn([C@H]3CC[C@H]3O)c2=O)nc2c(C(=O)NC3CC3)cnn12 [I-956] | < 200 pM | – | – | A (percent inhibition at 10 μM lower than 50) | A (percent inhibition at 10 μM lower than 50)
11 | CNc1cc(Nc2cccn([C@@H]3CCC[C@@H]3O)c2=O)nc2c(C(=O)NC3CC3)cnn12 [I-964] | 1000 to 10000 pM | < 50% | < 50% | – | –
12 | CNc1cc(Nc2cccn([C@@H]3CCC[C@@H]3O)c2=O)nc2c(C(=O)N[C@@H]3C[C@@H]3F)cnn12 [I-966] | 200 to 1000 pM | < 50% | < 50% | – | –
13 | CNc1cc(Nc2cccn(-c3cncc(F)c3)c2=O)nc2c(C(=O)NC3CC3)cnn12 [I-967] | < 200 pM | < 50% | < 50% | – | –
14 | CNc1cc(Nc2cccn(-c3cncc(F)c3)c2=O)nc2c(C(=O)N[C@@H]3C[C@@H]3F)cnn12 [I-968] | < 200 pM | < 50% | < 50% | – | –
15 | CNc1cc(Nc2cccn(-c3ccccn3)c2=O)nc2c(C(=O)N[C@@H]3CC[C@H]3O)cnn12 [I-972] | 200 to 1000 pM | < 50% | < 50% | – | –
16 | CNc1cc(Nc2cccn(C(C)C)c2=O)nc2c(C(=O)N[C@@H]3CC[C@@H]3O)cnn12 [I-978] | 200 to 1000 pM | < 50% | < 50% | – | –
17 | CNc1cc(Nc2cccn(C(C)C)c2=O)nc2c(C(=O)N[C@H]3CC[C@@H]3O)cnn12 [I-982] | 200 to 1000 pM | < 50% | < 50% | – | –
18 | CNc1cc(Nc2cccnc2OC2CC2)nc2c(-c3cn(C(C)C)nn3)cnn12 [I-985, N5-(2-cyclopropoxypyridin-3-yl)-3-(1-isopropyl-1H-1,2,3-triazol-4-yl)-N7-methylpyrazolo[1,5-a]pyrimidine-5,7-diamine] | 200 to 1000 pM | < 50% | < 50% | – | –
19 | CNc1cc(Nc2cccn([C@H]3CCN(CCC#N)C3)c2=O)nc2c(C(=O)N[C@@H]3C[C@@H]3F)cnn12 [I-986] | < 200 pM | < 50% | < 50% | – | –
20 | CNc1cc(Nc2cccn([C@@H]3CCN(CCC#N)C3)c2=O)nc2c(C(=O)N[C@@H]3C[C@@H]3F)cnn12 [I-987] | < 200 pM | < 50% | < 50% | – | –
21 | CNc1cc(Nc2cccn([C@@H]3CCCC[C@@H]3OC)c2=O)nc2c(C(=O)NC3CC3)cnn12 [I-989] | > 10000 pM | < 50% | < 50% | – | –
22 | CNc1cc(Nc2cccn([C@@H]3CCCC[C@@H]3OC)c2=O)nc2c(C(=O)NCC(C)(C)CO)cnn12 [I-990] | 1000 to 10000 pM | < 50% | < 50% | – | –

Row | Structure (SMILES) | Kd [1] | inhibition at 10 µM (JAK2 kinase domain (JH1)) | inhibition at 10 µM (Tyk2 kinase domain (DH1)) | JAK2 JH1% Inhibition @ 10 μM (JAK2 kinase domain (JH1)) | Tyk2 JH1% Inhibition @ 10 μM (Tyk2 kinase domain (DH1))
23 | CNc1cc(Nc2cccn([C@@H]3CCCC[C@@H]3OC)c2=O)nc2c(C(=O)NCC3(CO)CC3)cnn12 [I-991] | 1000 to 10000 pM | < 50% | < 50% | – | –
24 | CNc1cc(Nc2cccn([C@H]3CC[C@@H]3OC)c2=O)nc2c(C(=O)N[C@@H]3C[C@@H]3F)cnn12 [I-997] | < 200 pM | – | – | A (percent inhibition at 10 μM lower than 50) | A (percent inhibition at 10 μM lower than 50)
25 | CNc1cc(Nc2cccn([C@H]3CC[C@@H]3O)c2=O)nc2c(C(=O)N[C@@H]3C[C@@H]3F)cnn12 [I-998] | < 200 pM | – | – | A (percent inhibition at 10 μM lower than 50) | A (percent inhibition at 10 μM lower than 50)
26 | CNc1cc(Nc2cccn(C3CCCCC3)c2=O)nc2c(C(=O)N[C@H]3CC[C@H]3O)cnn12 [I-1001] | 1000 to 10000 pM | – | – | A (percent inhibition at 10 μM lower than 50) | A (percent inhibition at 10 μM lower than 50)
27 | CNc1cc(Nc2cccn(C3CCCCC3)c2=O)nc2c(C(=O)N[C@H]3CC[C@@H]3O)cnn12 [I-1003] | 200 to 1000 pM | < 50% | < 50% | – | –
28 | CNc1cc(Nc2cccn(-c3cccc(F)c3)c2=O)nc2c(C(=O)N[C@@H]3CC[C@@H]3O)cnn12 [I-1005] | 200 to 1000 pM | < 50% | < 50% | – | –
29 | CNc1cc(Nc2cc(Cl)cn(C3CCN(C)CC3)c2=O)nc2c(C(=O)N[C@H]3CC[C@H]3O)cnn12 [I-1006] | < 200 pM | < 50% | < 50% | – | –
30 | CNc1cc(Nc2cc(Cl)cn(C3CCN(C)CC3)c2=O)nc2c(C(=O)N[C@@H]3CC[C@@H]3O)cnn12 [I-1007] | 200 to 1000 pM | < 50% | < 50% | – | –
31 | CNc1cc(Nc2cccnc2OC)nc2c(-c3cn(C(C)C)nn3)cnn12 [I-1008, 3-(1-isopropyl-1H-1,2,3-triazol-4-yl)-N5-(2-methoxypyridin-3-yl)-N7-methylpyrazolo[1,5-a]pyrimidine-5,7-diamine] | < 200 pM | 50 to 70% | < 50% | – | –
32 | CNc1cc(Nc2cccn(C3CCCN(CCC#N)C3)c2=O)nc2c(C(=O)NC3CC3)cnn12 (stereo not drawn) [I-1009, 5-((1-(1-(2-cyanoethyl)piperidin-3-yl)-2-oxo-1,2-dihydropyridin-3-yl)amino)-N-cyclopropyl-7-(methylamino)pyrazolo[1,5-a]pyrimidine-3-carboxamide] | 200 to 1000 pM | < 50% | < 50% | – | –
33 | CNc1cc(Nc2cccn([C@H]3CCN(CCC#N)C3)c2=O)nc2c(C(=O)NC3CC3)cnn12 [I-1011] | 200 to 1000 pM | < 50% | < 50% | – | –
34 | CNc1cc(Nc2cccn([C@@H]3CCN(CCC#N)C3)c2=O)nc2c(C(=O)NC3CC3)cnn12 [I-1012] | 200 to 1000 pM | < 50% | < 50% | – | –
35 | CNc1cc(Nc2cccnc2OC)nc2c(C(=O)N[C@H]3CC[C@@]3(C)O)cnn12 [I-1015, N-((1S,2R)-2-hydroxy-2-methylcyclobutyl)-5-((2-methoxypyridin-3-yl)amino)-7-(methylamino)pyrazolo[1,5-a]pyrimidine-3-carboxamide] | 1000 to 10000 pM | < 50% | < 50% | – | –
36 | CNc1cc(Nc2cccnc2OC)nc2c(C(=O)N[C@@H]3CC[C@]3(C)O)cnn12 [I-1016, N-((1R,2S)-2-hydroxy-2-methylcyclobutyl)-5-((2-methoxypyridin-3-yl)amino)-7-(methylamino)pyrazolo[1,5-a]pyrimidine-3-carboxamide] | 1000 to 10000 pM | < 50% | < 50% | – | –
37 | CNc1cc(Nc2cccn(-c3cnco3)c2=O)nc2c(C(=O)N[C@@H]3CC[C@@H]3O)cnn12 [I-1018] | 1000 to 10000 pM | < 50% | < 50% | – | –
38 | CNc1cc(Nc2cccn([C@H]3CC[C@@H]3OC)c2=O)nc2c(C(=O)NC3CC3)cnn12 [I-1019] | 200 to 1000 pM | < 50% | < 50% | – | –
39 | CNc1cc(Nc2cccn([C@@H]3CC[C@H]3OC)c2=O)nc2c(C(=O)NC3CC3)cnn12 [I-1020] | 200 to 1000 pM | < 50% | < 50% | – | –
40 | CNc1cc(Nc2cccn(-c3cccc(F)c3)c2=O)nc2c(C(=O)N[C@@H]3CC[C@H]3O)cnn12 [I-1023] | < 200 pM | < 50% | < 50% | – | –
41 | CNc1cc(Nc2cccn(-c3cccc(F)c3)c2=O)nc2c(C(=O)N[C@H]3CC[C@@H]3O)cnn12 [I-1024] | < 200 pM | < 50% | < 50% | – | –
42 | CNc1cc(Nc2cccn([C@@H]3CCC[C@@H](OC)C3)c2=O)nc2c(C(=O)NC3CC3)cnn12 [I-1026] | < 200 pM | < 50% | < 50% | – | –
43 | CNc1cc(Nc2cccn([C@@H]3CCC[C@@H](OC)C3)c2=O)nc2c(C(=O)NCC(C)(C)CO)cnn12 [I-1028] | 200 to 1000 pM | < 50% | < 50% | – | –
